Data from patent publication US9090776B2, “Squarylium dyes” (Exciton, Inc., priority 2012, dated 2015).

Experiment: Solubility of squarylium dye in dichloromethane
Format: physicochemical
Text: Subsequent conversion to the squarylium dye can yield desirable photophysical, solubility, thermal stability, and/or light stability properties. For example, as shown in the FIGURE, the ortho-, ortho- isomer of compound IV has a solubility of about 0.2 gm/L in dichloromethane, CH2Cl2. In comparison, the corresponding meta-, meta- and para-, para- isomers of compound have solubilities of about 0.6 gm/L and about 0.5 gm/L in CH2Cl2, respectively.

- solubility in dichloromethane, CH2Cl2: about 0.6 gm/L
SMILES: CC1N(Cc2cccc(NC(=O)c3ccccc3)c2)c2cc(NC(=O)c3ccccc3)c(C3=C([O-])/C(=c4/cc5c(cc4NC(=O)c4ccccc4)=[N+](Cc4cccc(NC(=O)c6ccccc6)c4)C(C)C5(C)C)C3=O)cc2C1(C)C (stereo not drawn) [meta-, meta- isomer of compound IV]
